Measured values reported in the supplement of paper PMC8671470.

Experiments:
Details in all cases: 72 h
HL-60 [1] = experiment: cell viability (% survival relative to DMSO control); higher = less cytotoxic
Method in brief: (§1)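 HL-60 cells grown in RPMI 1640 with 10% FBS were rescreened against the full library in 384-well plates, in duplicate, at five tenfold concentrations from 1 to 10,000 nM, alongside DMSO or 100 nM of one of three metabolic inhibitors for 72 h at 37 °C, 5% CO2. Reference wells contained DMSO or 10 μM proteasome inhibitor. Viability was read with CellTiter-Glo and normalised to these reference wells, and where reported, area under the curve was taken from four-parameter log-logistic fits in drc and PharmacoGx.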

HL-60 [2] = experiment: area under dose-response curve (viability, 1 nM-10 uM) (fraction (0-1)); higher = more sensitive
Method in brief: as §1

[3] = test system: myeloid leukemia patient primary cells Pat.10; experiment: cell viability (% survival relative to DMSO control); higher = less cytotoxic
Method in brief: (§2)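 Mononuclear cells from patients with AML or CML were thawed, purified on Ficoll and placed in RPMI 1640 with 10% FBS at 10,000 cells/well on 384-well plates. The plates came pre-printed with 70 compounds at five tenfold concentrations spanning 1–10,000 nM, in duplicate, and cells were exposed for 72 h. CellTiter-Glo gave viability, scaled between DMSO wells and wells with 10 μM proteasome inhibitor. Where reported, area under the curve was obtained from log-logistic fits with four parameters using the drc and PharmacoGx R packages.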

[4] = test system: myeloid leukemia patient primary cells Pat.15; experiment: as above
Method in brief: as §2

[5] = test system: myeloid leukemia patient primary cells Pat.2; experiment: as above
Method in brief: as §2

[6] = test system: myeloid leukemia patient primary cells Pat.11; experiment: as above
Method in brief: as §2

[7] = test system: myeloid leukemia patient primary cells Pat.9; experiment: as above
Method in brief: as §2

[8] = test system: myeloid leukemia patient primary cells Pat.6; experiment: as above
Method in brief: as §2

[9] = test system: myeloid leukemia patient primary cells Pat.4; experiment: as above
Method in brief: as §2

[10] = test system: myeloid leukemia patient primary cells Pat.8; experiment: as above
Method in brief: as §2

[11] = test system: myeloid leukemia patient primary cells Pat.5; experiment: as above
Method in brief: as §2

[12] = test system: myeloid leukemia patient primary cells Pat.12; experiment: as above
Method in brief: as §2

[13] = test system: myeloid leukemia patient primary cells Pat.3; experiment: as above
Method in brief: as §2

[14] = test system: myeloid leukemia patient primary cells Pat.13; experiment: as above
Method in brief: as §2

[15] = test system: myeloid leukemia patient primary cells Pat.1; experiment: as above
Method in brief: as §2

[16] = test system: myeloid leukemia patient primary cells Pat.14; experiment: as above
Method in brief: as §2

[17] = test system: myeloid leukemia patient primary cells Pat.7; experiment: as above
Method in brief: as §2

O=C(O)CC[N+](=O)[O-] [3-nitropropionic acid]
cell viability [%], HL-60 [1]
Details | 0.001 µM | 0.01 µM | 0.1 µM | 1 µM | 10 µM
co-treatment: AZD3965 100 nM | 102 | 95.1 | 101 | 101.5 | 97.6
co-treatment: DMSO vehicle | 99.6 | 98.8 | 107 | 111 | 101
co-treatment: GSK2194069 100 nM | 98.1 | 76.9 | 116 | 115 | 96.7
co-treatment: pictilisib 100 nM | 84.3 | 82.1 | 103 | 128 | 106

Details | area under dose-response curve, co-treatment: AZD3965 100 nM | area under dose-response curve, co-treatment: DMSO vehicle | area under dose-response curve, co-treatment: GSK2194069 100 nM | area under dose-response curve, co-treatment: pictilisib 100 nM | cell viability, 1 nM [%] | cell viability, 10 nM [%] | cell viability, 100 nM [%] | cell viability, 1000 nM [%] | cell viability, 10000 nM [%]
HL-60 [2] | < 0.0301 | < 0.0301 | < 0.0301 | < 0.0301 | – | – | – | – | –
[3] | – | – | – | – | 90.9 | 83.7 | 74.7 | 76.2 | 36.6
[4] | – | – | – | – | 92.7 | 79.1 | 98.7 | 94.9 | 2.04
[5] | – | – | – | – | 91.3 | 98.1 | > 100 | 92.7 | 83.7
[6] | – | – | – | – | 97.4 | 90.2 | 97.5 | 99.5 | 97.4
[7] | – | – | – | – | 80.9 | 66.3 | 81.6 | 71.5 | 2.42
[8] | – | – | – | – | > 100 | 93 | > 100 | 96.8 | 90
[9] | – | – | – | – | 83.6 | 84.5 | 99.3 | 95.6 | 5.84
[10] | – | – | – | – | 81.1 | 96.9 | 95.6 | 96.3 | 82.7
[11] | – | – | – | – | 85.9 | 50.1 | 81.8 | 67.1 | 0.265
[12] | – | – | – | – | 97.9 | 84 | > 100 | 91.5 | 48.2
[13] | – | – | – | – | 91.5 | 93.8 | 99.8 | 92.1 | 3.01
[14] | – | – | – | – | 87.3 | 92.4 | 95.5 | 88.3 | 70.8
[15] | – | – | – | – | 84.1 | 94.1 | > 100 | 88.4 | 68.5
[16] | – | – | – | – | 98.6 | 91.2 | > 100 | 84.7 | 30.7
[17] | – | – | – | – | 98.1 | 99.9 | 82.6 | 90.8 | 44.9

Cc1[nH]nc(C(F)(F)F)c1Cc1sc2c(c1C(=O)N1C[C@](C)(O)CO1)c(=O)n(C)c(=O)n2C(C)C [AZD3965]
cell viability [%], HL-60 [1]
Details | 0.001 µM | 0.01 µM | 0.1 µM | 1 µM | 10 µM
co-treatment: AZD3965 100 nM | 92.7 | 98.1 | 96 | 92.2 | 102
co-treatment: DMSO vehicle | 102 | 95.8 | 97.9 | 94.6 | 99.6
co-treatment: GSK2194069 100 nM | 98 | 95.7 | 108 | 97.5 | 105
co-treatment: pictilisib 100 nM | 89.3 | 97.7 | 109 | 97.9 | 112

Details | area under dose-response curve, co-treatment: AZD3965 100 nM | area under dose-response curve, co-treatment: DMSO vehicle | area under dose-response curve, co-treatment: GSK2194069 100 nM | area under dose-response curve, co-treatment: pictilisib 100 nM | cell viability, 1 nM [%] | cell viability, 10 nM [%] | cell viability, 100 nM [%] | cell viability, 1000 nM [%] | cell viability, 10000 nM [%]
HL-60 [2] | < 0.0301 | < 0.0301 | < 0.0301 | < 0.0301 | – | – | – | – | –
[3] | – | – | – | – | 98.2 | 33.4 | 85 | 46.5 | 48.7
[4] | – | – | – | – | 84 | 98.8 | 92.7 | 96.7 | 93.6
[5] | – | – | – | – | 97 | 87.2 | 99 | 96.3 | 98
[6] | – | – | – | – | 93.7 | 91.6 | > 100 | > 100 | 88.6
[7] | – | – | – | – | > 100 | 34.8 | > 100 | 74.3 | 86.9
[8] | – | – | – | – | 90.7 | 83.2 | 97.7 | 94.9 | 96.1
[9] | – | – | – | – | 87.3 | 98.5 | 98.1 | > 100 | > 100
[10] | – | – | – | – | 86.7 | 74.6 | 89.9 | 92.5 | 87.8
[11] | – | – | – | – | 82.2 | 5.69 | 65 | 55.7 | 44.5
[12] | – | – | – | – | 93.3 | 94 | > 100 | 99.9 | 98.2
[13] | – | – | – | – | 86.2 | 76.4 | > 100 | 92.3 | 94.2
[14] | – | – | – | – | 85.6 | 69.2 | 93.7 | 97.4 | 81.1
[15] | – | – | – | – | 93.1 | 89.5 | 97.5 | 95.2 | 93
[16] | – | – | – | – | 84.2 | 39.1 | > 100 | 89.9 | 98.9
[17] | – | – | – | – | 64 | 45.1 | 93.6 | 99.9 | 98.5

O=C(/C=C/c1ccc(O)c(O)c1)OCCc1ccccc1 [Caffeic acid phenethyl ester]
cell viability [%], HL-60 [1]
Details | 0.001 µM | 0.01 µM | 0.1 µM | 1 µM | 10 µM
co-treatment: AZD3965 100 nM | 98.9 | 99.96 | 104 | 103 | 27.4
co-treatment: DMSO vehicle | 76 | 95.8 | 98.75 | 98.83 | 33.3
co-treatment: GSK2194069 100 nM | 93.3 | 100.7 | 102 | 97.1 | 33.1
co-treatment: pictilisib 100 nM | 101 | 102 | 96.7 | 81.5 | 22.1

Details | area under dose-response curve, co-treatment: AZD3965 100 nM | area under dose-response curve, co-treatment: DMSO vehicle | area under dose-response curve, co-treatment: GSK2194069 100 nM | area under dose-response curve, co-treatment: pictilisib 100 nM | cell viability, 1 nM [%] | cell viability, 10 nM [%] | cell viability, 100 nM [%] | cell viability, 1000 nM [%] | cell viability, 10000 nM [%]
HL-60 [2] | 0.0691 | 0.0547 | 0.0593 | 0.138 | – | – | – | – | –
[3] | – | – | – | – | 88.2 | 63.9 | 33 | 31 | 83.7
[4] | – | – | – | – | 96.5 | 85.8 | 96.1 | 64.9 | 40.5
[5] | – | – | – | – | 95.4 | 98.6 | > 100 | 89.3 | 64
[6] | – | – | – | – | 96.1 | 97.8 | > 100 | 73.5 | 38
[7] | – | – | – | – | 68.9 | 84.8 | 8.63 | 11.1 | 11.8
[8] | – | – | – | – | 98 | 93.6 | 96.9 | 65.7 | 35.2
[9] | – | – | – | – | 89.5 | 87.7 | 86.2 | 16.7 | 2.41
[10] | – | – | – | – | 97.7 | 80.9 | 85.1 | 29 | 5.61
[11] | – | – | – | – | 65.2 | 69.6 | 55.9 | 4.78 | 21.6
[12] | – | – | – | – | > 100 | 95.5 | > 100 | 57.4 | 34.5
[13] | – | – | – | – | 92 | 83.1 | 39.1 | 41.7 | 3.62
[14] | – | – | – | – | > 100 | 91 | 95.8 | 87.2 | 42
[15] | – | – | – | – | 98.5 | 93 | 98.4 | 63.3 | 44
[16] | – | – | – | – | 95.7 | 83.5 | 80.5 | 48.9 | 16.3
[17] | – | – | – | – | 74.4 | 79.4 | 78.2 | 16.3 | < 0
